pIC50: −log10 of the molar value.
Legend:
IDH2-R140Q mutant enzyme = biological target: T1, IDH2-R140Q mutant enzyme (Homo sapiens, UniProt P48735, R140Q); experiment: Inhibitory activity of compounds on IDH2-R140Q enzyme in vitro (diaphorase/resazurin fluorescence); format: biochemical; details: R140Q IC50, IDH2-R140Q, pre-incubated 16 h with enzyme and NADPH, reaction 1 h with α-ketoglutarate
T1 construct: purchased BPS 71100-1
T1 sequence (P48735 40-452 R140Q): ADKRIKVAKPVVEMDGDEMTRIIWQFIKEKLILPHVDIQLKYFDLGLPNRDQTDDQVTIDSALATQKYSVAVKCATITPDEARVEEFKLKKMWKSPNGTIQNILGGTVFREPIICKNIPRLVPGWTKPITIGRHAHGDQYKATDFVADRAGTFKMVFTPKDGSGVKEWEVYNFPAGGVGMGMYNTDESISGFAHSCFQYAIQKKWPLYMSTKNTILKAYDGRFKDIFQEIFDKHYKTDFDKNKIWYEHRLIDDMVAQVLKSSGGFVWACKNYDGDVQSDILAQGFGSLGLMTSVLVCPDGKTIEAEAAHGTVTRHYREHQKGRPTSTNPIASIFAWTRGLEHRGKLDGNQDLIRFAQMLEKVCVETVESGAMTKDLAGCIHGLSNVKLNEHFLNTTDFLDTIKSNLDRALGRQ

[1] = tested on: U87-MG (IDH2-R140Q) subcutaneous xenograft tumor; experiment: Subcutaneous xenograft tumor caused by U87-MG (IDH2-R140Q) mutant cells in vivo: intratumor 2-HG; design: species or system BALB/c nude mice; details: intragastric, 10 days, mean, relative to U87-MG (IDH2-R140Q) control group
Source text: 1.2 Animals: BALB/c nude mice, 6-7 weeks old, female, 18-22 g, purchased from Nanjing Jinlaichang Company.
U87-MG (IDH2-R140Q) cells and U87-MG cells (wild type) were expanded, and cells in logarithmic growth phase were used for tumor inoculation in vivo. 16 mice were inoculated subcutaneously into the right lower back of the body at an amount of 2×10^6 cells/mouse (the volume ratio of cell suspension to Matrigel was 1:0.8).
The non-mutation control group was nude mice inoculated with U87-MG cells, and the test compound groups and vehicle control group were nude mice inoculated with U87-MG (IDH2-R140Q) cells.
Each group was intragastrically administered with a corresponding concentration of the compound solution, the administration volume was 100 μL/10 g body weight, and the control group was administered the same volume of blank vehicle.
After 10 days of administration, the mice were sacrificed. The tumors were exfoliated, homogenized, and the 2-HG content in the tumor was examined.
The 2-HG concentration in the homogenate of each animal tumor in each group was determined by LC-MS/MS. The percentage (2-HG %) was calculated; the calculation formula is as follows 2-HG %=(2-HG concentration of administration group tumor−2-HG concentration of U87-MG control group tumor)/(2-HG concentration of U87−MG(IDH2-R140Q) control group tumor−2-HG concentration of U87-MG control group tumor)×100%.

## CC(C)(O)CNc1nc(Nc2ccnc(C(F)(F)F)c2)nc(-c2cccc(C(F)(F)F)n2)n1 [AG-221, 2-methyl-1-(4-(6-(trifluoromethyl)pyridin-2-yl)-6-(2-(trifluoromethyl)pyridin-4-ylamino)-1,3,5-triazin-2ylamino)propan-2-ol, reference compound]
IDH2-R140Q mutant enzyme
  pIC50: 7.68
[1]; 6.25 mg/kg
  Intratumor 2-HG(%) after 10 days of administration: 58%
[1]; 12.5 mg/kg
  Intratumor 2-HG(%) after 10 days of administration: 9%
[1]; 25 mg/kg
  Intratumor 2-HG(%) after 10 days of administration: −4%
